# Values of other authors, collected in patent publication US6713069B1, “Compositions and methods for detecting, preventing, and treating African Hemorrhagic Fever” (Board of Supervisors of Louisiana State University and …, priority 1996, dated 2004).
# Tested on: HIV
substance,measurement,value
enfuvirtide,inhibition of HIV infection and fusion,inhibit HIV infection and fusion at very low dosages
